Measured values as given in patent US12129265B2, “Therapeutic agents and uses thereof” (Ankh Life Sciences Limited, priority 2020, dated 2024).
pIC50: −log10 of the molar value. Read-outs that look alike come from different tables or passages of the source.

Legend:
Assay in all cases: CellTiter-Glo in vitro cell proliferation assay, Example 8
Jeko-1 Parental cells = format: cell-based; conditions: Homo sapiens, Mantle Cell Lymphoma, 72 hours
Protocol: (§1) In this Example, in vitro cell proliferation assays were performed using: (1) Human Myeloma tumor cell lines; (2) Human Lymphoma tumor cell lines; (3) Solid Human tumor cell lines; and (4) Parental, Lenalidomide resistant and Bortezomib resistant Jeko-1 Mantle cell Lymphoma tumor cell lines. The compounds tested were three diharmaline compounds, namely the 518B562 (or simply 562), 560, and 561 compounds. In addition, a monoharmaline product designated as 518F014 was also tested. This monoharmaline product had the following structure:
(§2) Each proliferation assay was carried out as follows. The test cells were plated in growth media using a 384-well microtiter plate at 50 μL volume. The cells were incubated for 24 hours at 37° C. in a humidified incubator. After 24 hours of incubation, the test compounds were added to the test wells in DSMO solvent, at concentrations ranging from 0.0075-100 μM. Control wells received equal volumes of DSMO, without compound. Following drugging, the cells were incubated for 72 hours at 37° C. in a humidified incubator. After this exposure, 100 μL of a 1:1 mixture of sterile water and CellTiter-Glo® reagent (Promega) was added to each well. The plates were then incubated for 60 minutes at room temperature, followed by recording the luminescence value of each well using a luminometer as a measure of cell proliferation.

RXF-393 cells = format: cell-based; conditions: Homo sapiens; RXF-393, Renal, 72 hours; read-out: Mean IC50
Protocol: as §1, §2

SU-DHL-4 cells = format: cell-based; conditions: Homo sapiens; SU-DHL-4, Diffuse Large B-Cell Lymphoma, 72 hours; read-out: Mean IC50
Protocol: as §1, §2

N87 cells = format: cell-based; conditions: Homo sapiens; N87, Gastric, 72 hours; read-out: Mean IC50
Protocol: as §1, §2

SU-DHL-6 cells = format: cell-based; conditions: Homo sapiens; SU-DHL-6, Diffuse Large B-Cell Lymphoma, 72 hours; read-out: Mean IC50
Protocol: as §1, §2

[1] = system: Jeko-1 Lenalidomide resistant cells; format: cell-based; conditions: Homo sapiens, Mantle Cell Lymphoma, 72 hours
Protocol: as §1, §2

[2] = system: Jeko-1 Bortezomib resistant cells; format: cell-based; conditions: Homo sapiens, Mantle Cell Lymphoma, 72 hours
Protocol: as §1, §2

ASPC-1 cells = format: cell-based, Human; conditions: ASPC-1, Pancreatic, read-out: Mean IC50
Summary of the method: (§3)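 DMSO-only wells served as controls against compound-treated wells (0.0075–100 μM) in a 72 h, 37 °C proliferation test. Readout: CellTiter-Glo luminescence.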

KMS-34 cells = format: cell-based, Human; conditions: read-out: Mean IC50
Summary of the method: as §3

KMM-1 cells = format: cell-based, Human; conditions: read-out: Mean IC50
Summary of the method: as §3

HCC70 cells = format: cell-based, Human; conditions: read-out: Mean IC50
Summary of the method: as §3

MDA-MB-231 cells = format: cell-based, Human; conditions: read-out: Mean IC50
Summary of the method: as §3

L363 cells = format: cell-based, Human; conditions: read-out: Mean IC50
Summary of the method: as §3

JIM1 cells = format: cell-based, Human; conditions: read-out: Mean IC50
Summary of the method: as §3

SiHA cells = format: cell-based, Human; conditions: read-out: Mean IC50
Summary of the method: as §3

DOHH-2 cells = format: cell-based, Human; conditions: read-out: Mean IC50
Summary of the method: as §3

A2780 cells = format: cell-based, Human; conditions: A2780, Ovarian, read-out: Mean IC50
Summary of the method: as §3

FaDu cells = format: cell-based, Human; conditions: read-out: Mean IC50
Summary of the method: as §3

AN3CA cells = format: cell-based, Human; conditions: Endometrial, read-out: Mean IC50
Summary of the method: as §3

OCI-LY3 cells = format: cell-based, Human; conditions: read-out: Mean IC50
Summary of the method: as §3

KMS-11 cells = format: cell-based, Human; conditions: KMS-11, Human Myeloma, 72 hours; read-out: Mean IC50
Summary of the method: as §3

A498 cells = format: cell-based, Human; conditions: read-out: Mean IC50
Summary of the method: as §3

MIA PaCa-2 cells = format: cell-based, Human; conditions: MIA PaCa-2, Pancreatic, read-out: Mean IC50
Summary of the method: as §3

H1975 (EGFR mut) cells = format: cell-based, Human; conditions: read-out: Mean IC50
Summary of the method: as §3

A2780CP cells = format: cell-based, Human; conditions: Ovarian, read-out: Mean IC50
Summary of the method: as §3

BxPC-3 cells = format: cell-based, Human; conditions: BxPC-3, Pancreatic, read-out: Mean IC50
Summary of the method: as §3

MDA-MB-468 cells = format: cell-based, Human; conditions: read-out: Mean IC50
Summary of the method: as §3

KHM-1B cells = format: cell-based, Human; conditions: Human Myeloma, 72 hours, read-out: Mean IC50
Summary of the method: as §3

HEC-1a cells = format: cell-based, Human; conditions: Endometrial, read-out: Mean IC50
Summary of the method: as §3

KMS-27 cells = format: cell-based, Human; conditions: KMS-27, Human Myeloma, 72 hours; read-out: Mean IC50
Summary of the method: as §3

MM.1s cells = format: cell-based, Human; conditions: MM1.S; MM.IS, Human Myeloma, 72 hours; read-out: Mean IC50
Summary of the method: as §3

H929 cells = format: cell-based, Human; conditions: NCI-H929; H929, Human Myeloma, 72 hours; read-out: Mean IC50
Summary of the method: as §3

MOLP-8 cells = format: cell-based, Human; conditions: read-out: Mean IC50
Summary of the method: as §3

H1650 (EGFR mut) cells = format: cell-based, Human; conditions: read-out: Mean IC50
Summary of the method: as §3

RPMI-8226 cells = format: cell-based, Human; conditions: RPMI-8226, HMM
Summary of the method: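 After 24 h plating, cells exposed to compound in DMSO over 0.0075–100 µM for 72 h at 37 °C. Viability read by CellTiter-Glo luminescence after 60 min at room temperature, relative to DMSO controls.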

[3] = Homo sapiens, Squamous, 72 hours

Compound: COc1ccc2c(c1)=NC1=C(CCc3ccc(O)c(OC)c3)NCCC=21 [518F014]
- pIC50 (Jeko-1 Parental cells): 4.05
- pIC50 (RXF-393 cells): 4.02
- pIC50 (SU-DHL-4 cells): 4.04
- pIC50 (N87 cells): 4.39
- pIC50 (SU-DHL-6 cells): 4.30
- pIC50 [1]: 4.10
- pIC50 [2]: 4.06
- pIC50 (ASPC-1 cells; Homo sapiens, ASPC1, 72 hours): 4.06
- pIC50 (KMS-34 cells; KMS-34, Human Myeloma, 72 hours): < 4.00
- pIC50 (KMM-1 cells; KMM-1, Human Myeloma, 72 hours): 4.09
- pIC50 (HCC70 cells; Homo sapiens, HCC70, Triple Negative Breast, 72 hours): < 4.00
- pIC50 (MDA-MB-231 cells; Homo sapiens, MDA-MB-231, Triple Negative Breast, 72 hours): 4.11
- pIC50 (L363 cells; L-363, L363, Human Myeloma, 72 hours): 4.00
- pIC50 (JIM1 cells; JIM1, Human Myeloma, 72 hours): 4.07
- pIC50 (SiHA cells; [3]): < 4.00
- pIC50 (DOHH-2 cells; Homo sapiens, DOHH-2, Diffuse Large B-Cell Lymphoma, 72 hours): < 4.00
- pIC50 (A2780 cells; Homo sapiens, 72 hours): 4.15
- pIC50 (FaDu cells; [3]): < 4.00
- pIC50 (AN3CA cells; Homo sapiens, AN3-CA, 72 hours): 4.06
- pIC50 (OCI-LY3 cells; Homo sapiens, OCI-LY3, Diffuse Large B-Cell Lymphoma, 72 hours): < 4.00
- pIC50 (KMS-11 cells): < 4.00
- pIC50 (A498 cells; Homo sapiens, A498, Renal, 72 hours): < 4.00
- pIC50 (MIA PaCa-2 cells; Homo sapiens, 72 hours): < 4.00
- pIC50 (H1975 (EGFR mut) cells; Homo sapiens, NCI-H1975, Non Small Cell Lung, 72 hours): 4.10
- pIC50 (A2780CP cells; Homo sapiens, A2780C/P, 72 hours): < 4.00
- pIC50 (BxPC-3 cells; Homo sapiens, 72 hours): 4.01
- pIC50 (MDA-MB-468 cells; Homo sapiens, MDA-MB-468, Triple Negative Breast, 72 hours): < 4.00
- pIC50 (KHM-1B cells): 4.03
- pIC50 (HEC-1a cells; Homo sapiens, 72 hours): < 4.00
- pIC50 (KMS-27 cells): 4.04
- pIC50 (MM.1s cells): < 4.00
- pIC50 (H929 cells): 4.10
- pIC50 (MOLP-8 cells; MOLP-8, Human Myeloma, 72 hours): 4.06
- pIC50 (H1650 (EGFR mut) cells; Homo sapiens, NCI-H1650, Non Small Cell Lung, 72 hours): < 4.00

Compound: COc1ccc2c3c([nH]c2c1)C(CC(CC1=NCCc2c1[nH]c1cc(OC)ccc21)c1cc(F)c(F)cc1F)=NCC3 [compound 23]
- pIC50 (RPMI-8226 cells): 5.89
- pIC50 (ASPC-1 cells): 5.03
- pIC50 (KMS-34 cells; KMS-34, HMCL-B): 5.46
- pIC50 (KMM-1 cells; KMM-1, HMCL-A): 5.40
- pIC50 (HCC70 cells; HCC70, TNBC): 4.96
- pIC50 (MDA-MB-231 cells; MDA-MB-231, TNBC): 5.23
- pIC50 (L363 cells; L363, PCL/MM): 5.33
- pIC50 (JIM1 cells; JIM1, HMCL): 5.20
- pIC50 (SiHA cells; Cervical - SC): 4.93
- pIC50 (DOHH-2 cells; DoHH-2, GCB-DLBCL): 5.43
- pIC50 (A2780 cells): 5.29
- pIC50 (FaDu cells; H&N - SC): 5.21
- pIC50 (AN3CA cells): 5.62
- pIC50 (OCI-LY3 cells; OCI-LY3, ABC-DLBCL): 5.26
- pIC50 (A498 cells; A498, RCC): 4.67
- pIC50 (MIA PaCa-2 cells): 5.25
- pIC50 (H1975 (EGFR mut) cells; NSCLC): 5.08
- pIC50 (A2780CP cells): 5.19
- pIC50 (BxPC-3 cells): 5.30
- pIC50 (MDA-MB-468 cells; MDA-MB-468, TNBC): 5.18
- pIC50 (HEC-1a cells): 4.90
- pIC50 (MOLP-8 cells; MOLP-8, MM IgD): 5.50
- pIC50 (H1650 (EGFR mut) cells; NSCLC): 5.23
